A short description of data set [1]: Plasma level after administration in the formalin experiments. It is filed as in vivo. Conditions: plasma level 1.5 h after compound administration, i.p., rat.
For a further data set, the target named is T1, heteromeric hASIC1a+3 (Homo sapiens, UniProt P78348+Q9UHC3).
T1 sequence (P78348 1-528): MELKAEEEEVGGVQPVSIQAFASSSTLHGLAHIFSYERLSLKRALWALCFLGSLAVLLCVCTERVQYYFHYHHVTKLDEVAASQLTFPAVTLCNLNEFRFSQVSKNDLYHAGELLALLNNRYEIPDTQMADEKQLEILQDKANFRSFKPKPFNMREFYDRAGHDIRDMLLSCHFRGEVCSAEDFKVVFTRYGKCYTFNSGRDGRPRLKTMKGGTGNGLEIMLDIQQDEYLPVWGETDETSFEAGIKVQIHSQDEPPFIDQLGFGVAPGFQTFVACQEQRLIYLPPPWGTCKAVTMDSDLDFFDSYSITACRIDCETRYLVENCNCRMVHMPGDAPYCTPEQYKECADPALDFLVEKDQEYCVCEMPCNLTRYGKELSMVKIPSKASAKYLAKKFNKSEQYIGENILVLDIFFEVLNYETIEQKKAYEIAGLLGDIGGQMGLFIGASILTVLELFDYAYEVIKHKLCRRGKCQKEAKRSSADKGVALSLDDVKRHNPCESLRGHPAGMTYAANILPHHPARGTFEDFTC
T1 sequence (Q9UHC3 1-531): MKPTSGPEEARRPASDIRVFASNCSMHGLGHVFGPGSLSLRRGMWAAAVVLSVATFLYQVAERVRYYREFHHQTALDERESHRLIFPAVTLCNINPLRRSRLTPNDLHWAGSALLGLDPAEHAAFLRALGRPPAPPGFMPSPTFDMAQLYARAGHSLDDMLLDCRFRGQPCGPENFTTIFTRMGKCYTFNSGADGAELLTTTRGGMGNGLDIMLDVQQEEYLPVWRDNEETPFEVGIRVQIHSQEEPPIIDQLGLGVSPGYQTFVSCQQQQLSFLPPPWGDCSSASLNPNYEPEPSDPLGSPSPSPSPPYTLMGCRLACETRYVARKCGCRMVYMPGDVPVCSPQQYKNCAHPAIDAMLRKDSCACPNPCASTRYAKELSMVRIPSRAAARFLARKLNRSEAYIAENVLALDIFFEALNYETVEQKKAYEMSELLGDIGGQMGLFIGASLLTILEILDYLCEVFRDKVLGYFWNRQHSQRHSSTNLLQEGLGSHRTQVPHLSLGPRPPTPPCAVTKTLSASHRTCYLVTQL
Kind of data set: Whole-cell patch clamp of HEK293 cells co-expressing hASIC1a and hASIC3. It is filed as cell-based. Further details: expressed in transfected cells; host or cells: HEK293. Conditions: 10 μM, HEK293, -60 mV, pH 7.4 to pH 6.5 for 5 sec, n=3. The protocol:
HEK293 cells were transfected either with hASIC1a alone or co-transfected with hASIC1a and hASIC3. Acid-induced inward currents were recorded in the presence and absence of compound A (10 μM) using the whole-cell configuration of the patch-clamp method (voltage clamp mode).
All experiments are performed at room temperature (20-25° C.) in voltage clamp using conventional whole cell patch clamp methods (Neher, E., et al. (1978) Pfluegers Arch 375:219-228).
Coverslips with the cells are transferred to a 15 μl experimental chamber mounted on the stage of an inverted microscope (IMT-2, Olympus) supplied with Nomarski optics. […] The cells are held at a holding voltage of −60 mV and at the start of each experiment the current is continuously measured for 45 s to ensure a stable baseline. […] Current amplitudes are measured at the peak of the responses, and effect of the compounds is calculated as the amplitude at compound equilibrium divided by the amplitude of the current evoked by the pulse just before the compound was included. […]
FIGS. 4A and 4B show response to acidic saline in the absence or presence of 10 μM of Compound A recorded from HEK293 cells expressing either hASIC1a alone or HEK293 cells co-expressing hASIC1a and hASIC3 [voltage clamped at −60 mV, extracellular solution surrounding cells was changed rapidly from pH 7.4 to pH 6.5 for 5 sec] […]

From patent publication US7718641B2, “Pyrrolo [3,4-H] isoquinoline compounds and methods for modulating gated ion channels” (Aros Pharma ApS, priority 2005, dated 2010) come the findings set out here.

On to `COc1ccc(F)cc1-c1cc2c(c3c1CCN(C)C3)NC(=O)/C2=N/O` [Compound A, 5-(5-fluoro-2-methoxyphenyl)-6,7,8,9-tetrahydro-3-(hydroxyimino)-8-methyl-1H-pyrrolo[3,2-h]isoquinoline-2(3H)-one], for which the “relationship between dose and plasma level” value in data set [1] is “linear relationship between dose and plasma exposure”. For the same molecule, the “effect on acid-induced inward current, hASIC1a and hASIC3 co-expressed” value on heteromeric hASIC1a+3 is listed as “effectively modulates the activity”.
